Reference: ChEMBL document CHEMBL4673352, “Discovery of AZD4573, a Potent and Selective Inhibitor of CDK9 That Enables Short Duration of Target Engagement for the Treatment of Hematological Malignancies” (J Med Chem, 2020)
The source made the active and inactive calls. No cut-off for these calls is given here.

Assays:
[1] = Drug metabolism in human hepatocytes assessed 3-(4-(2-((1S,3R)-3-acetamidocyclohexanecarboxamido)-5-chloropyridin-4-yl)-1H-pyrazol-5-yl)-2,2-dimethylpropanoic acid metabolite formation; type: ADME, cell-based, Hepatocyte
[2] = biological target: T1, Mitogen-activated protein kinase 8 (Homo sapiens, UniProt P45983); assay: Inhibition of human recombinant His-tagged JNK1 expressed in baculovirus expression system at 0.1 uM incubated for 60 mins by TR-FRET based LanthaScreen Eu kinase binding assay relative to control
[3] = biological target: Mitogen-activated protein kinase kinase kinase kinase 4 (Homo sapiens) (UniProt O95819); assay: Inhibition of recombinant human GST-tagged MAP4K4 catalytic domain expressed in baculovirus expression system at 1 uM by Lanthascreen assay relative to control; details: time 60.0 min
[4] = biological target: T1, Mitogen-activated protein kinase 8; assay: Inhibition of JNK1 (unknown origin) in presence of 5 mM ATP
[5] = biological target: Cyclin-dependent kinase 9 (Mus musculus) (UniProt Q99J95); assay: In-vivo inhibition of CDK9 in mouse xenografted with human MV4-11 cells assessed as reduction in Mcl-1 at 5 to 15 mg/kg, ip BID administered at 2 hrs dose interval with 2 days on and 5 days off dosing schedule by Western blot analysis; type: functional, organism-based; details: dose 5-15 mg/kg
[6] = Volume of distribution at steady state in mouse at 2.3 umol/kg, iv formulated as solution; type: ADME, organism-based; details: in vivo, dose 2.3 µmol/kg, read-out: Vdss
[7] = biological target: Glycogen synthase kinase-3 alpha (Homo sapiens, UniProt P49840); assay: Inhibition of GSK3alpha (unknown origin) in presence of 5 mM ATP
[8] = Drug metabolism in human hepatocytes assessed as (1S,3R)-3-acetamido-N-(5-chloro-4-(5-(3-hydroxy-2,2-dimethylpropyl)-1H-pyrazol-4-yl)pyridin-2-yl)cyclohexanecarboxamide metabolite formation; type: ADME, cell-based, Hepatocyte
[9] = Half-life in cynomolgus monkey at 0.46 umol/kg, iv administered over 0.25 hrs formulated as solution in DMA/PEG400/Tween80; type: ADME, organism-based, Macaca fascicularis; details: in vivo, dose 0.46 µmol/kg
[10] = Clearance in Beagle dog plasma at 0.23 umol/kg, iv administered over 0.25 hrs formulated as solution in 10% DMSO/90% water; type: ADME, organism-based, Canis lupus familiaris; details: dose 0.23 µmol/kg
[11] = biological target: T2, Glycogen synthase kinase-3 beta (Homo sapiens, UniProt P49841); assay: Inhibition of GSK3beta (unknown origin) in presence of 5 mM ATP
Target sequence in this assay (P49841 whole entry): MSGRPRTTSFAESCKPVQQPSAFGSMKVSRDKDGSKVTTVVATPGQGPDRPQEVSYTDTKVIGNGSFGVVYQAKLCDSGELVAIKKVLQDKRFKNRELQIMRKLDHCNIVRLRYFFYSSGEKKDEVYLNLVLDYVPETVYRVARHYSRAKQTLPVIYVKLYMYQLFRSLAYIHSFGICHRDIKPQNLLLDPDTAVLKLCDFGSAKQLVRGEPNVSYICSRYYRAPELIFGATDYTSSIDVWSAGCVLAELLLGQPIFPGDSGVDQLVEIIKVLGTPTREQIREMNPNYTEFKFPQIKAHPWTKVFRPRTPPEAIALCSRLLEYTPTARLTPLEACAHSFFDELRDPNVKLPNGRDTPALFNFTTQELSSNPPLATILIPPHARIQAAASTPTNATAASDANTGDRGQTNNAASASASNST

[12] = test system: NOMO-1; assay: Antitumor activity against human NOMO1 cells xenografted in CB17 SCID mouse assessed as tumor growth inhibition at 5 mg/kg, ip BID administered at 2 hrs dosing interval with 2 days on and 5 days off dosing schedule measured 12 days post initial dose; type: functional; details: NOMO-1, ip, 288 h, time 12 day, read-out: TGI
[13] = biological target: T2, Glycogen synthase kinase-3 beta; assay: Inhibition of GSK3beta (unknown origin) at 0.1 uM incubated for 60 mins by TR-FRET based LanthaScreen Eu kinase binding assay relative to control
Target sequence in this assay (P49841 whole entry, looked up): as the sequence (P49841 whole entry) above

[14] = biological target: Cyclin-dependent kinase 9 (Mus musculus) (UniProt Q99J95); assay: In-vivo inhibition of CDK9 in mouse xenografted with human MV4-11 cells assessed as reduction in RNA Polymerase 2 CTD phosphorylation at Ser2 residues at 5 to 15 mg/kg, ip BID administered at 2 hrs dose interval with 2 days on and 5 days off dosing schedule by Western blot analysis; type: functional, organism-based; details: dose 5-15 mg/kg
[15] = biological target: Dual specificity mitogen-activated protein kinase kinase 7 (Homo sapiens) (UniProt O14733); assay: Inhibition of human recombinant […] using NK1a1 as substrate at 1 uM incubated for 40 mins in presence of [gamma32P]-ATP by scintillation counting method relative to control
[16] = Drug metabolism in human liver microsomes assessed as3-(4-(2-((1S,3R)-3-acetamidocyclohexanecarboxamido)-5-chloropyridin-4-yl)-1H-pyrazol-5-yl)-2,2-dimethylpropanoic acid formation at 10 uM measured after 1 hr in presence of NADPH by LC-UV-MS analysis; type: ADME, Microsome
[17] = biological target: Cyclin-dependent kinase 7/ cyclin H (Homo sapiens) (UniProt P51946+P50613); assay: Inhibition of human recombinant full-length CDK7/CyclinH using peptide as substrate incubated for 40 mins in presence of [gamma-33P]ATP at 1 uM by scintillation counting method relative to control; type: protein-complex assay
[18] = biological target: T3, Cyclin-dependent kinase 9 (Homo sapiens, UniProt P50750)
[19] = Half-life in Beagle dog at […], iv administered over 0.25 hrs formulated as solution in DMSO/Captisol; type: ADME, organism-based, Canis lupus familiaris; details: in vivo, dose 0.24 µmol/kg
[20] = Volume of distribution at steady state in Beagle dog at […], iv administered over 0.25 hrs formulated as solution in DMSO/Captisol; type: ADME, organism-based, Canis lupus familiaris; details: in vivo, dose 0.24 µmol/kg, read-out: Vdss
[21] = species on record: Homo sapiens; assay: Selectivity ratio of IC50 for CDK3 (unknown origin) in presence of 5 mM ATP to IC50 for Inhibition of recombinant full length human N-terminal GST-fused CDK9 (1 to 372 residues)/His-tagged CyclinT1 (1 to 726 residues) expressed in baculovirus infected insect cells
[22] = biological target: T3, Cyclin-dependent kinase 9; assay: Inhibition of CDK9 in human MCF7 cells assessed as reduction in RNA Polymerase 2 CTD phosphorylation at Ser2 residues measured after 6 hrs by immunofluorescence assay; type: cell-based
[23] = species on record: Homo sapiens; assay: Selectivity ratio of IC50 for recombinant full length human CDK7/cyclinH1/MAT1 expressed in insect cells to IC50 for Inhibition of recombinant full length human N-terminal GST-fused CDK9 (1 to 372 residues)/His-tagged CyclinT1 (1 to 726 residues) expressed in baculovirus infected insect cells
[24] = Clearance in Beagle dog plasma at […], iv administered as 0.25 hrs infusion; type: ADME, organism-based, Canis lupus familiaris; details: dose 0.24 µmol/kg
[25] = Drug metabolism in human hepatocytes assessed as (1S,3R)-3-acetamido-N-(5-fluoro-4-(6-hydroxy-5,5-dimethyl-5,6-dihydro-4H-pyrrolo[1,2-b]pyrazol-3-yl)pyridin-2-yl)cyclohexanecarboxamide metabolite formation; type: ADME, cell-based, Hepatocyte
[26] = species on record: Homo sapiens; assay: Selectivity ratio of IC50 for recombinant full length human His-tagged CDK1/CyclinB expressed in baculovirus infected insect cells to IC50 for Inhibition of recombinant full length human N-terminal GST-fused CDK9 (1 to 372 residues)/His-tagged CyclinT1 (1 to 726 residues) expressed in baculovirus infected insect cells
[27] = Drug metabolism in human hepatocytes assessed as 4-(4-(2-((1S,3R)-3-acetamidocyclohexanecarboxamido)-5-chloropyridin-4-yl)-1H-pyrazol-5-yl)butanoic acid metabolite formation; type: ADME, cell-based, Hepatocyte
[28] = Drug metabolism in human hepatocytes assessed as (1S,3R)-3-acetamido-N-(5-chloro-4-(5-(4-hydroxybutyl)-1H-pyrazol-4-yl)pyridin-2-yl)cyclohexanecarboxamide metabolite formation; type: ADME, cell-based, Hepatocyte
[29] = Drug metabolism in human hepatocytes assessed as (1S,3R)-3-acetamido-N-(5-chloro-4-(7-hydroxy-4,5,6,7-tetrahydropyrazolo[1,5-a]pyridin-3-yl)pyridin2-yl)cyclohexanecarboxamide metabolite formation; type: ADME, cell-based, Hepatocyte
[30] = Volume of distribution at steady state in Beagle dog at 5.2 umol/kg, iv administered as 0.25 hrs formulated as solution in 5% DMSO; type: ADME, organism-based, Canis lupus familiaris; details: in vivo, dose 5.2 µmol/kg, read-out: Vdss
[31] = Clearance in mouse plasma at […], iv formulated as solution; type: ADME, organism-based; details: dose 4.8 µmol/kg

Cyclin-dependent kinase 9 (Mus musculus), sequence (Q99J95 whole entry): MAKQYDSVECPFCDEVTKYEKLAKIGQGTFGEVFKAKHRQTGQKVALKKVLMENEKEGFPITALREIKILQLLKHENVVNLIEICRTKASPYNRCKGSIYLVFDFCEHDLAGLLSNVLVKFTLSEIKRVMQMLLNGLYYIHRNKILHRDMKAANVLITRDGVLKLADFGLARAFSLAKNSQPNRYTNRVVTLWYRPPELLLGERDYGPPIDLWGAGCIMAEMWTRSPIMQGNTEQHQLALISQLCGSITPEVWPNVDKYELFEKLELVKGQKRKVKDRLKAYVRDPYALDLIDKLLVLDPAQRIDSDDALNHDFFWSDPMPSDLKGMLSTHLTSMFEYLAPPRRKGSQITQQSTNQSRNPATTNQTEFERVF
T3 sequence (P50750 whole entry): as the sequence (Q99J95 whole entry) above, with T17S, K37R, Q40K, K258N, F262Y counted along it
T1 sequence (P45983 whole entry, the tested form may be a part): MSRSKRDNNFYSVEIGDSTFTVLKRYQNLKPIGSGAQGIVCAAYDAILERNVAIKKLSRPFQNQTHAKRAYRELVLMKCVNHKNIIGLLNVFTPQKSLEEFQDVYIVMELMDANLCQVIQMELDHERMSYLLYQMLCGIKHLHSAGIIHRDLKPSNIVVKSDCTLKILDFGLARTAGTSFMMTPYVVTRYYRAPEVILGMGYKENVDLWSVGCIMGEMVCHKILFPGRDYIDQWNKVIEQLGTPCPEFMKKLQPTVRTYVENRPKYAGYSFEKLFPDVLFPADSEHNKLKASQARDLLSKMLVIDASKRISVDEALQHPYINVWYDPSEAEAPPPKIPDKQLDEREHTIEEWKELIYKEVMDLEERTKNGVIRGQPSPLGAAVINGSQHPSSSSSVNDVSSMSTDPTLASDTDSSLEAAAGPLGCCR
Mitogen-activated protein kinase kinase kinase kinase 4 (Homo sapiens), sequence (O95819 2-1239 limits assumed): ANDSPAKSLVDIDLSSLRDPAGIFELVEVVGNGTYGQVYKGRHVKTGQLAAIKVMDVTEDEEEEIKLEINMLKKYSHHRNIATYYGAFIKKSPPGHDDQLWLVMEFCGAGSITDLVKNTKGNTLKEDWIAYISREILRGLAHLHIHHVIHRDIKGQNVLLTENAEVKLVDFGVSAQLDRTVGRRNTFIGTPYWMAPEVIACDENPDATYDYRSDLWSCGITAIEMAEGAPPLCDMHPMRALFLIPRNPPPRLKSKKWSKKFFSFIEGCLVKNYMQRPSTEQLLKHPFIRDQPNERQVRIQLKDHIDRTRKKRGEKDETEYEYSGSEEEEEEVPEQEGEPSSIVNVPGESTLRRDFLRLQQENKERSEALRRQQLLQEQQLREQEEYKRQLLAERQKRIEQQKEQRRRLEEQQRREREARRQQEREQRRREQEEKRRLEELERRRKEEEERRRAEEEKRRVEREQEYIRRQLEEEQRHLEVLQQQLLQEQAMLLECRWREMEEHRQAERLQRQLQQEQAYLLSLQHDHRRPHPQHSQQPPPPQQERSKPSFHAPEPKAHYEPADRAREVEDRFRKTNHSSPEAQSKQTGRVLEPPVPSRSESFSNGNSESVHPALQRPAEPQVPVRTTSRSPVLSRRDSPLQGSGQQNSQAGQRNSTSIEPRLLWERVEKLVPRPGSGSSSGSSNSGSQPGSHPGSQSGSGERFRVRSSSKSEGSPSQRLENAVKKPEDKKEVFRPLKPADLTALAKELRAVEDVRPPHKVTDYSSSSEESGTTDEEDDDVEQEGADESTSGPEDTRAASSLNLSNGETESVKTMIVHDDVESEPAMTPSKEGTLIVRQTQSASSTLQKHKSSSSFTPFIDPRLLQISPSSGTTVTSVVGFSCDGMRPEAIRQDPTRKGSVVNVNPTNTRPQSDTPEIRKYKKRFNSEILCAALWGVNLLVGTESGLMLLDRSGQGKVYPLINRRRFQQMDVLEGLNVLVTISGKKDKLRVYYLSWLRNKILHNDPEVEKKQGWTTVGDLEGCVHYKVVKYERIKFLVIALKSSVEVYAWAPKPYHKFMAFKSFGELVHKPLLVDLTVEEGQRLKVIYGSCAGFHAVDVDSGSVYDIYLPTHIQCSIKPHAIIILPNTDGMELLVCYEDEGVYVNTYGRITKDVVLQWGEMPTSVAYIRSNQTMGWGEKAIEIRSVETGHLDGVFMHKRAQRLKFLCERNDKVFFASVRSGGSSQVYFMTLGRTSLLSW
Dual specificity mitogen-activated protein kinase kinase 7 (Homo sapiens), sequence (O14733 whole entry): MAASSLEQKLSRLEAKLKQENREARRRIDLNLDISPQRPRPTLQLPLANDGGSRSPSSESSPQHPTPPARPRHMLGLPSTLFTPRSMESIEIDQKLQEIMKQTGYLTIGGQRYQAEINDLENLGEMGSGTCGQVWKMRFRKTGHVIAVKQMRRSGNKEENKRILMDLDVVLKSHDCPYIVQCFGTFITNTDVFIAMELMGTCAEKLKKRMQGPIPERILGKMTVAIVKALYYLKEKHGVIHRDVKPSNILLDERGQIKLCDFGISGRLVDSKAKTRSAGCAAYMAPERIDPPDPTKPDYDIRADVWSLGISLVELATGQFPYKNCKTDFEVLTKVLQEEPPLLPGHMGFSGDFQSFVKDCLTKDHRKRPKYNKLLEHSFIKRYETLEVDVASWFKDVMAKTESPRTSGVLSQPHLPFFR
Glycogen synthase kinase-3 alpha, sequence (P49840 whole entry): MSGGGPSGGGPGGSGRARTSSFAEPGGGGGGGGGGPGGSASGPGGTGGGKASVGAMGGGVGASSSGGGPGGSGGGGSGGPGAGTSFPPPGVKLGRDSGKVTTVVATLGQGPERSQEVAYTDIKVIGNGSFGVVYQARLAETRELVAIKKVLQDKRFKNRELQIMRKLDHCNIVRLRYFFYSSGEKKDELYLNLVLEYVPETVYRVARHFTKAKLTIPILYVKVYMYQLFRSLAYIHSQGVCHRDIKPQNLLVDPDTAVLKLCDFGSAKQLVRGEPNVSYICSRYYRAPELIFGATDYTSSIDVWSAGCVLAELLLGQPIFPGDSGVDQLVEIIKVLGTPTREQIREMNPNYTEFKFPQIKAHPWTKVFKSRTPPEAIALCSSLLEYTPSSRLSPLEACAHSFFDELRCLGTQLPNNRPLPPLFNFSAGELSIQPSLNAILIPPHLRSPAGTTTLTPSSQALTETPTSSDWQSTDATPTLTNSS

For `CC(=O)N[C@@H]1CCC[C@H](C(=O)Nc2cc(-c3cnn4c3CC(C)(C)C4)c(Cl)cn2)C1` [ZEMIRCICLIB], the Drug metabolism [1] was “Metabolite_Detected”, the inhibition [2] was 84% and the inhibition [3] was 85%. For the same compound, the IC50 [4] was 2800 nM, the inhibition [5] was “Active” and the Vd [6] was 0.45 L/kg. For the same compound, the IC50 [7] was 187 nM, the Drug metabolism [8] was “Metabolite_Detected” and the half-life [9] was 53.4 min. It also gave a clearance [10] of 16 mL/min/kg, an IC50 [11] of 247 nM and an inhibition in vivo at 5 mg/kg [12] of 65%. For the same compound, the inhibition [13] was 100%, the inhibition [14] was “Active” and the inhibition [15] was 85%. For the same compound, the Drug metabolism [16] was “Metabolite_Detected”.
In the case of `CC(=O)N[C@@H]1CCC[C@H](C(=O)Nc2cc(-c3cnn4c3CC(C)(C)C4)c(F)cn2)C1`, the inhibition [17] is reported as 92%, the IC50 [18] is reported as over 3000 nM and the half-life at 0.25 h [19] is reported as 25.8 min. The Vd at 0.25 h [20] was 1.2 L/kg, the Ratio IC50 [21] was 5 and the IC50 [22] was 25 nM. The Ratio IC50 [23] was 16, the clearance at 0.25 h [24] was 53 mL/min/kg and the Drug metabolism [25] was “Metabolite_Detected”. It also gave a Ratio IC50 [26] of 16.
In the case of `CC(=O)N[C@@H]1CCC[C@H](C(=O)Nc2cc(-c3cnn4c3CCCC4)c(Cl)cn2)C1`, the Drug metabolism [27] is reported as “Metabolite_Detected”, the Drug metabolism [28] is reported as “Metabolite_Detected” and the Drug metabolism [29] is reported as “Metabolite_Detected”. It also gave a Vd [30] of 0.9 L/kg and a clearance [31] of 65 mL/min/kg.
